Results published in US20160115540A1, “PRODRUGS AND DRUGS” (Biogen MA Inc., priority 2013, published 2016).
Counter-ions that a name gives are not always drawn.

Test system: cortex
Assay: Transcriptional profiling on Affymetrix GeneChips, single dose, naïve mice: cortex
Format: in vivo, C57BL/6 mice
Details: for Number of differentially expressed genes identified: Cortex: Naïve, Single Dose
Method: Treated mice were sacrificed at 2, 7, or 12 hours. Tissues (liver, spleen, kidney, jejunum, cortex, hippocampus, striatum and whole blood) were collected and analyzed by transcriptional profiling on mouse Affymetrix GeneChips.
Tissues (liver, spleen, kidney, jejunum, cortex, hippocampus, striatum and whole blood) were collected and analyzed by transcriptional profiling on mouse Affymetrix GeneChips.
Animals were exposed to CO2 and whole blood collected via cardiac puncture. Two 100 μl aliquots of whole blood were collected in 1.5 mL microcentrifuge tubes and snap frozen in liquid nitrogen. Peripheral (liver, spleen, kidney and jejunum) and CNS brain (cerebellum, hippocampus, striatum and cortex) tissues were harvested and snap frozen in liquid nitrogen, with special care taken to collect tissues of similar size and from the same location. All samples were stored at −80° C. until RNA extraction was conducted.
For RNA preparation, frozen tissues were placed in 2 mL RNAse-free 96-well blocks with 1.5 mL QIAzol Lysis Reagent (QIAgen) and a 3.2 mm stainless steel bead (BioSpec Products, Bartlesville, Okla.). Tissues were disrupted for four cycles of 45 seconds in a Mini-Beadbeater (Biospec Products). RNA was extracted in chloroform and the aqueous phase was mixed with an equal volume of 70% ethanol. Extracted RNA was applied to RNeasy 96 plates and purified by the spin method according to the manufacturer's protocol (RNeasy 96 Universal Tissue Protocol, QIAgen, Hilden Germany).
Automated sample amplifications and biotin labelings were carried out using the NuGEN Ovation RNA Amplification system V2 (Cat #3100), Ovation WB reagent (Cat #1300) and Encore Biotin module (Cat #4200) (NuGEN Technologies, Inc, San Carlos, Calif.) according to manufacturer's recommendations using an Arrayplex automated liquid handler (Beckman Coulter, Indianapolis, Ind.). Two micrograms of biotin labeled sscDNA probe were hybridized to Affymetrix GeneChip Affymetrix HT_MG-430_PM plate arrays with modified conditions as described in Allaire et al. Washing and staining of the hybridized arrays were completed as described in the GeneChip Expression analysis technical manual for HT plate arrays using the Genechip® Array Station (Affymetrix, Santa Clara, Calif.) with modifications as described in Allaire et al. The processed GeneChip® plate arrays were scanned using GeneTitan scanner (Affymetrix, Santa Clara, Calif.).
Affymetrix scans were subject to quality control (QC) measures. These tests included a visual inspection of the distribution of raw signal intensities and an assessment of RNA degradation, relative log expression (RLE), and normalized unsealed standard error (NUSE). All sample scans that passed these QC metrics were included in the analysis.
All CEL files were subjected to GC-content-based Robust Multi-array Average (GCRMA) normalization (version 2.20.0) (Irizarry R A, et al. Nucleic Acids Res 2003; 31:e15; Li C, et al. Genome Biol 2001; 2:[…]0032). Expression levels were log (base 2) transformed.
All calculations and analyses were carried out using R (version 2.11.1) and Bioconductor computational tools (Gentleman R. Springer Science+Business Media 2005).

[1] = 100 mpk, vs Vehicle, 2 h after last dosing
[2] = 100 mpk, vs Vehicle, 7 h after last dosing
[3] = 100 mpk, vs Vehicle, 12 h after last dosing
[4] = cortex, 2 hr after single 100 mg/kg oral dose
[5] = cortex, 7 hr after single 100 mg/kg oral dose

## COC(=O)/C=C/C(=O)OC [DMF, dimethyl fumarate]
Cortex
  Number of genes, DMF Only / MMF Only: 2
Cortex, 7 hr
  Fgfbp1 (1419086_PM_at) differential expression: 1.54
  Nqo1 (1423627_PM_at) differential expression: 1.50
100 mpk DMF-vs-100 mpk MMF, 2 h after last dosing
  Number of differentially expressed genes identified: Cortex: 0
100 mpk DMF-vs-100 mpk MMF, 7 h after last dosing
  Number of differentially expressed genes identified: Cortex: 0
100 mpk DMF-vs-100 mpk MMF, 12 h after last dosing
  Number of differentially expressed genes identified: Cortex: 0
[1]
  Number of differentially expressed genes identified: Cortex: 2
[2]
  Number of differentially expressed genes identified: Cortex: 2
[3]
  Number of differentially expressed genes identified: Cortex: 0
cortex, 100DMF-vs-100MMF, 2 h
  differentially expressed genes: None
cortex, 100DMF-vs-100MMF, 7 h
  differentially expressed genes: None
cortex, 100DMF-vs-100MMF, 12 h
  differentially expressed genes: None
cortex, 100DMF-vs-Veh, 2 h
  FC AI314604 (1442075_PM_at): 1.57
  FC Ciapin1 (1448140_PM_at): 1.55
cortex, 100DMF-vs-Veh, 7 h
  FC Fgfbp1 1419086_PM_at: 1.54
  FC Nqo1 (1423627_PM_at): 1.50
cortex, 100DMF-vs-Veh, 12 h
  differentially expressed genes: None

## COC(=O)/C=C/C(=O)O [MMF, monomethyl fumarate]
Cortex
  Number of genes, DMF Only / MMF Only: 14
Cortex, 2 hr
  Arnt2 (1420670_PM_at) differential expression: −1.66
  Atrn (1421166_PM_at) differential expression: −1.62
  Chka (1442277_PM_at) differential expression: −1.53
  Ednrb (1423594_PM_a_at) differential expression: −1.53
  Extl3 (1421339_PM_at) differential expression: −1.57
  Mkln1 (1416734_PM_at) differential expression: −1.85
  Plekhm3 (1438108_PM_at) differential expression: −1.50
  Ptk2 (1430827_PM_a_at) differential expression: −1.53
  Ptprg (1456070_PM_at) differential expression: −1.83
  Speer4b (1429992_PM_at) differential expression: −1.60
  Tanc2 (1443123_PM_at) differential expression: −1.72
  Top2b (1448458_PM_at) differential expression: −1.51
  Trak2 (1429607_PM_at) differential expression: −1.57
Cortex, 7 hr
  Aox1 (1419435_PM_at) differential expression: 1.65
  Fgfbp1 (1419086_PM_at) differential expression: 1.62
Cortex, 12 hr
  Aox1 (1419435_PM_at) differential expression: 1.54
[1]
  Number of differentially expressed genes identified: Cortex: 9
[2]
  Number of differentially expressed genes identified: Cortex: 2
[3]
  Number of differentially expressed genes identified: Cortex: 1
cortex, 100MMF-vs-Veh, 2 h
  FC Arnt2 (1420670_PM_at): −1.66
  FC Atrn (1421166_PM_at): −1.62
  FC Ednrb (1423594_PM_a_at): −1.53
  FC Mkln1 (1416734_PM_at): −1.85
  FC Plekhm3 (1438108_PM_at): −1.50
  FC Ptk2 (1430827_PM_a_at): −1.53
  FC Tanc2 (1443123_PM_at): −1.72
  FC Top2b (1448458_PM_at): −1.51
  FC Trak2 (1429607_PM_at): −1.57
cortex, 100MMF-vs-Veh, 7 h
  FC Aox1 (1419435_PM_at): 1.65
  FC Fgfbp1 1419086_PM_at: 1.62
cortex, 100MMF-vs-Veh, 12 h
  FC Aox1 (1419435_PM_at): 1.54
[4]
  Arnt2 mRNA fold change vs vehicle: −1.66
  Atrn mRNA fold change vs vehicle: −1.62
  Chka mRNA fold change vs vehicle: −1.53
  Ednrb mRNA fold change vs vehicle: −1.53
  Extl3 mRNA fold change vs vehicle: −1.57
  Mkln1 mRNA fold change vs vehicle: −1.85
  Plekhm3 mRNA fold change vs vehicle: −1.50
  Ptk2 mRNA fold change vs vehicle: −1.53
  Ptprg mRNA fold change vs vehicle: −1.83
  Speer4b mRNA fold change vs vehicle: −1.60
  Tanc2 mRNA fold change vs vehicle: −1.72
  Top2b mRNA fold change vs vehicle: −1.51
  Trak2 mRNA fold change vs vehicle: −1.57
[5]
  Aox1 mRNA fold change vs vehicle: 1.65
  Fgfbp1 mRNA fold change vs vehicle: 1.62
cortex, 12 hr after single 100 mg/kg oral dose
  Aox1 mRNA fold change vs vehicle: 1.54
